Experimental data: the supplement of paper PMC6045584
± gives the standard deviation of the averaged measurements.

Assays:
[1] = compound: CC(=O)O[C@H]1C(=O)[C@@]2(C)[C@H]([C@H](OC(=O)c3ccccc3)[C@]3(O)C[C@H](OC(=O)[C@H](O)[C@@H](NC(=O)c4ccccc4)c4ccccc4)C(C)=C1C3(C)C)[C@]1(OC(C)=O)CO[C@@H]1C[C@@H]2O [PACLITAXEL]; test: surviving fraction relative to DMSO-only wells; higher = less growth inhibition; details: exposure time: 5 days
Method in brief: (§1)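 At 250–500 cells per well in 384-well plates, log-phase tumour cell lines were seeded and, 24 hours on, exposed continuously for five days to inhibitors at 0.5, 1, 5, 10, 50, 100, 500 and 1000 nM. Viability readout was CellTiter-Glo luminescence, reported as surviving fraction normalised to the median of DMSO-only wells.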

[2] = compound: CC(=O)c1c(C)c2cnc(Nc3ccc(N4CCNCC4)cn3)nc2n(C2CCCC2)c1=O; test: as above; details: exposure time: 5 days
Method in brief: as §1

| Test System | surviving fraction ([1]; 0.5 nM) | surviving fraction ([1]; 1 nM) | surviving fraction ([1]; 5 nM) | surviving fraction ([1]; 10 nM) | surviving fraction ([1]; 50 nM) | surviving fraction ([1]; 100 nM) | surviving fraction ([1]; 500 nM) | surviving fraction ([1]; 1000 nM) | surviving fraction ([2]; 0.5 nM) | surviving fraction ([2]; 1 nM) | surviving fraction ([2]; 5 nM) | surviving fraction ([2]; 10 nM) | surviving fraction ([2]; 50 nM) | surviving fraction ([2]; 100 nM) | surviving fraction ([2]; 500 nM) | surviving fraction ([2]; 1000 nM) |
| --- | --- | --- | --- | --- | --- | --- | --- | --- | --- | --- | --- | --- | --- | --- | --- | --- |
| MDAMB134 BREAST | 0.936 ± 0.055 | 0.994 ± 0.033 | 0.904 ± 0.18 | 0.67 ± 0.13 | 0.587 ± 0.11 | 0.4935 ± 0.00071 | 0.491 ± 0.072 | 0.598 ± 0.077 | 1.031 ± 0.0085 | 1.07 ± 0.023 | 1.1 ± 0.013 | 1.07 ± 0.04 | 1.154 ± 0.0057 | 1.26 ± 0.22 | 1.28 ± 0.12 | 1.25 ± 0.11 |
| HOSMNG BONE | 1.04 ± 0.049 | 1.05 ± 0.11 | 0.921 ± 0.088 | 0.924 ± 0.043 | 0.29 ± 0.031 | 0.12 ± 0.0079 | 0.0573 ± 0.0021 | 0.063 ± 0.0044 | 1.03 ± 0.021 | 0.978 ± 0.16 | 1.02 ± 0.042 | 1 ± 0.048 | 1.07 ± 0.072 | 1.05 ± 0.18 | 1.07 ± 0.094 | 1.06 ± 0.16 |
| ZR751 BREAST | 0.774 ± 0.1 | 0.628 ± 0.042 | 0.52 ± 0.087 | 0.461 ± 0.024 | 0.389 ± 0.042 | 0.437 ± 0.057 | 0.397 ± 0.021 | 0.449 ± 0.023 | 1.07 ± 0.19 | 1.07 ± 0.057 | 0.923 ± 0.2 | 0.953 ± 0.15 | 1.13 ± 0.059 | 1.04 ± 0.11 | 1.23 ± 0.12 | 1.01 ± 0.054 |
| OS25HAL BONE | 0.99 ± 0.023 | 0.993 ± 0.039 | 0.29 ± 0.028 | 0.118 ± 0.007 | 0.077 ± 0.0062 | 0.0677 ± 0.011 | 0.0523 ± 0.0029 | 0.0687 ± 0.017 | 1.03 ± 0.032 | 1.01 ± 0.0072 | 1.02 ± 0.011 | 1.04 ± 0.013 | 1.11 ± 0.013 | 1.05 ± 0.046 | 1.04 ± 0.054 | 0.982 ± 0.029 |
| SUM159 BREAST | 1.13 ± 0.24 | 1.1 ± 0.15 | 0.57 ± 0.024 | 0.179 ± 0.0045 | 0.12 ± 0.0095 | 0.107 ± 0.0015 | 0.124 ± 0.0017 | 0.137 ± 0.02 | 0.932 ± 0.26 | 0.942 ± 0.23 | 0.951 ± 0.18 | 0.893 ± 0.28 | 0.916 ± 0.3 | 0.842 ± 0.43 | 0.943 ± 0.27 | 0.925 ± 0.28 |
| RDES SOFT TISSUE | 1.099 ± 0.0061 | 1.22 ± 0.22 | 0.189 ± 0.067 | 0.129 ± 0.014 | 0.0673 ± 0.009 | 0.0537 ± 0.0058 | 0.056 ± 0.011 | 0.0623 ± 0.004 | 1.27 ± 0.17 | 1.18 ± 0.037 | 1.23 ± 0.067 | 1.02 ± 0.19 | 1.02 ± 0.24 | 1.02 ± 0.21 | 1.67 ± 0.18 | 1.57 ± 0.2 |
| SCC90 HEADNECK | 0.919 ± 0.038 | 0.95 ± 0.12 | 0.429 ± 0.057 | 0.294 ± 0.063 | 0.119 ± 0.024 | 0.0713 ± 0.011 | 0.07 ± 0.012 | 0.0663 ± 0.01 | 1.092 ± 0.0083 | 1.1 ± 0.11 | 1.12 ± 0.1 | 1.15 ± 0.025 | 1.06 ± 0.042 | 1.19 ± 0.14 | 1.12 ± 0.056 | 1.13 ± 0.13 |
| HU09 BONE | 0.811 ± 0.11 | 0.45 ± 0.011 | 0.0977 ± 0.0081 | 0.0603 ± 0.0055 | 0.0367 ± 0.0029 | 0.0263 ± 0.0042 | 0.0247 ± 0.0015 | 0.0247 ± 0.0042 | 0.993 ± 0.16 | 0.91 ± 0.051 | 1.08 ± 0.022 | 1.05 ± 0.11 | 1.04 ± 0.15 | 1.19 ± 0.049 | 0.984 ± 0.17 | 1.04 ± 0.059 |
| S68 BREAST | 0.815 ± 0.052 | 0.575 ± 0.13 | 0.197 ± 0.045 | 0.134 ± 0.026 | 0.14 ± 0.0047 | 0.144 ± 0.025 | 0.114 ± 0.0076 | 0.122 ± 0.0061 | 0.75 ± 0.08 | 0.809 ± 0.025 | 1.13 ± 0.062 | 1.18 ± 0.033 | 1.01 ± 0.091 | 1.19 ± 0.2 | 0.744 ± 0.043 | 0.79 ± 0.29 |
| CAL51 BREAST | 0.824 ± 0.04 | 0.642 ± 0.076 | 0.0935 ± 0.013 | 0.0585 ± 0.0033 | 0.0427 ± 0.0018 | 0.0332 ± 0.0037 | 0.0295 ± 0.0005 | 0.0332 ± 0.0027 | 0.964 ± 0.089 | 0.962 ± 0.055 | 0.982 ± 0.037 | 0.94 ± 0.06 | 0.997 ± 0.029 | 1.07 ± 0.012 | 0.968 ± 0.052 | 0.908 ± 0.0048 |
| HUO3N1 BONE | 0.808 ± 0.025 | 0.74 ± 0.019 | 0.334 ± 0.011 | 0.23 ± 0.0085 | 0.129 ± 0.0068 | 0.115 ± 0.0063 | 0.094 ± 0.006 | 0.1 ± 0.018 | 1.01 ± 0.041 | 1.04 ± 0.032 | 1.05 ± 0.035 | 1.01 ± 0.066 | 1.04 ± 0.024 | 1.1 ± 0.016 | 1.01 ± 0.05 | 1.03 ± 0.022 |
| HMT3552 BREAST | 0.568 | 0.133 | 0.09 | 0.091 | 0.106 | 0.099 | 0.1 | 0.094 | 1.05 | 1.05 | 0.895 | 0.991 | 1.31 | 1.25 | 1.17 | 1.19 |
| MDAMB468 BREAST | 0.973 ± 0.024 | 0.771 ± 0.056 | 0.144 ± 0.018 | 0.0737 ± 0.0015 | 0.064 ± 0.001 | 0.0567 ± 0.0091 | 0.057 ± 0.0036 | 0.0563 ± 0.013 | 1.07 ± 0.03 | 0.991 ± 0.044 | 1.07 ± 0.03 | 1 ± 0.041 | 1.1 ± 0.038 | 1.12 ± 0.032 | 1.05 ± 0.057 | 1.03 ± 0.064 |
| G292 BONE | 0.727 ± 0.028 | 0.472 ± 0.021 | 0.196 ± 0.0038 | 0.161 ± 0.0064 | 0.148 ± 0.0067 | 0.147 ± 0.0013 | 0.1228 ± 0.00076 | 0.128 ± 0.0067 | 1 ± 0.068 | 0.976 ± 0.033 | 1 ± 0.024 | 1.02 ± 0.045 | 0.951 ± 0.062 | 0.929 ± 0.058 | 0.678 ± 0.025 | 0.678 ± 0.036 |
| HS578T BREAST | 0.428 ± 0.043 | 0.246 ± 0.019 | 0.127 ± 0.0038 | 0.108 ± 0.011 | 0.126 ± 0.013 | 0.109 ± 0.0027 | 0.11 ± 0.01 | 0.101 ± 0.01 | 0.985 ± 0.087 | 1.09 ± 0.068 | 1.02 ± 0.11 | 1.02 ± 0.048 | 1.11 ± 0.15 | 1.14 ± 0.19 | 0.949 ± 0.071 | 1.13 ± 0.082 |
| MDAMB231 BREAST | 0.706 ± 0.028 | 0.328 ± 0.039 | 0.163 ± 0.0032 | 0.125 ± 0.0027 | 0.121 ± 0.0031 | 0.121 ± 0.0088 | 0.0907 ± 0.0055 | 0.0993 ± 0.0078 | 0.994 ± 0.01 | 1.03 ± 0.032 | 1.03 ± 0.014 | 1.01 ± 0.031 | 1.045 ± 0.0069 | 1.02 ± 0.021 | 0.905 ± 0.013 | 0.888 ± 0.023 |
| BT20 BREAST | 0.956 ± 0.11 | 0.718 ± 0.026 | 0.0893 ± 0.0055 | 0.0667 ± 0.0057 | 0.0593 ± 0.0063 | 0.058 ± 0.01 | 0.0513 ± 0.0049 | 0.0587 ± 0.011 | 1.12 ± 0.19 | 1.06 ± 0.3 | 0.955 ± 0.23 | 0.982 ± 0.1 | 0.981 ± 0.32 | 0.924 ± 0.24 | 0.916 ± 0.22 | 0.86 ± 0.21 |
| SG27 HEADNECK | 0.88 ± 0.066 | 0.899 ± 0.062 | 0.937 ± 0.032 | 0.935 ± 0.056 | 0.888 ± 0.1 | 0.911 ± 0.097 | 1.01 ± 0.04 | 0.849 ± 0.068 | 1.18 ± 0.081 | 1.07 ± 0.1 | 1.02 ± 0.025 | 0.956 ± 0.086 | 1.08 ± 0.15 | 1.09 ± 0.1 | 1.06 ± 0.048 | 1.1 ± 0.33 |
| SG28 HEADNECK | 1.05 ± 0.086 | 0.903 ± 0.13 | 0.645 ± 0.033 | 0.635 ± 0.051 | 0.463 ± 0.072 | 0.505 ± 0.0085 | 0.458 ± 0.02 | 0.487 ± 0.043 | 1.1 ± 0.069 | 1.1 ± 0.13 | 1.08 ± 0.15 | 0.955 ± 0.05 | 1.02 ± 0.16 | 1.02 ± 0.13 | 1 ± 0.058 | 1.07 ± 0.051 |
